The source of these data is patent US9732046B2, “Substituted 1,2,4-triazines as tubulin inhibitors” (YM Biosciences Australia Pty Ltd., priority 2003, dated 2017).

The test system of experiment [1] is Tubulin (microtubule protein). Nature of the experiment: Tubulin assay (turbidometric assay of microtubule assembly). It is filed as biochemical. As to conditions: Table 1; 50 μM; absorbance at 340 nm, 37° C. How it is done: Turbidometric assays of microtubule assembly were performed by incubating microtubule protein in cuvettes at 37° C. in a thermostatically controlled spectrophotometer measuring the change in absorbance at 340 nm over time. The microtubule protein was incubated with the each test compound at 0° C. and polymerisation was initiated by addition of 1 mM GTP, prior to heating to 37° C.

Experiment [2] has as its target T1, TelJak2 (BaF3 TELJAK cells, TEL/Jak2 fusion) (Homo sapiens, UniProt O60674).
T1 construct: The regions encompassing the kinase domain of JAK2 (nucleotides 2994-3914); expressed in transfected cells; host or cells: BaF3 cells bearing the pTET-off plasmid, transfected with pTELJAK2 (pTRE2 vector); the other entry of the earlier key: ETV6 (P41212, Transcription factor ETV6)
Nature of the experiment: Cellular growth inhibition assay (MTT), BaF3 TEL:JAK2 cell line. It is filed as cell-based. To be noted: Table 1, 40 hr incubation.

In experiment [3] the test system is K562 (Chronic Myeloid Leukemia). Nature of the experiment: Cellular growth inhibition assay (MTT), K562. It is filed as cell-based. As to conditions: Homo sapiens, Table 1, 40 hr incubation. The method, boiled down:
(§1)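 Late-log-phase cells (K562 in RPMI, DU145 in DMED, PC3 in F12K; all 10% FBS, Glutamx, plus MEM non-essential amino acids for DU145 and PC3) were plated at 50000–200,000 cell/mL (1.1× final) with compounds added at 10× final. After 40 hr at 37° C, 5% CO2, MTT was added for 6 hours, then SDS/HCl lysis overnight and absorbance read at 590 nm.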

The next experiment deals with PC3 (Prostate Cancer). Nature of the experiment: Cellular growth inhibition assay (MTT), PC3. The class given is cell-based. To be noted: Table 1, 40 hr incubation. The method, boiled down:
as §1

The test system of the next experiment is DU145 (Prostate Cancer). Nature of the experiment: Cellular growth inhibition assay (MTT), DU145. The class given is cell-based. To be noted: Homo sapiens, DU-145, Table 1, 40 hr incubation. The method, boiled down: as §1
In experiment [4] the target is T2, TelJak3 (BaF3 TELJAK cells, TEL/JAK3 fusion) (Homo sapiens, UniProt P52333).
T2 construct: For JAK3 Sa1 I/Not I cleaved kinase domain PCR product was ligated with BamH I/Sa1 I cleaved TELproduct; expressed in transfected cells; host or cells: BaF3 cells bearing the pTET-off plasmid, transfected with pTELJAK3 (pTRE2 vector); the other entry of the earlier key: ETV6 (P41212, Transcription factor ETV6)
Put plainly: Cellular growth inhibition assay (MTT), BaF3 TEL:JAK3 cell line. It is filed as cell-based. As to conditions: Table 1, 40 hr incubation.

T1 sequence (O60674 with tags, fused parts or gaps): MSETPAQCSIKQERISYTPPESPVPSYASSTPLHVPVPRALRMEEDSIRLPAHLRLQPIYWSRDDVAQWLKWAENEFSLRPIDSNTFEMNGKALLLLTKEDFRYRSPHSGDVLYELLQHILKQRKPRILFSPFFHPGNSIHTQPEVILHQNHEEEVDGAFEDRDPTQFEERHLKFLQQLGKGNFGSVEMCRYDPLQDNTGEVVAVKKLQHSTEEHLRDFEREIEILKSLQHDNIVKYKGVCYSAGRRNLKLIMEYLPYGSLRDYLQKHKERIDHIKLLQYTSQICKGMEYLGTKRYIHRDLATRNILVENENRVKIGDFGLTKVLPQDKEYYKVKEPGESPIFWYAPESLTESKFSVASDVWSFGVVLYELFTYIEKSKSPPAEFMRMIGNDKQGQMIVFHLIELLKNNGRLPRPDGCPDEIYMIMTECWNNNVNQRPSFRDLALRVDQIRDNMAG
T2 sequence (P52333 with tags, fused parts or gaps): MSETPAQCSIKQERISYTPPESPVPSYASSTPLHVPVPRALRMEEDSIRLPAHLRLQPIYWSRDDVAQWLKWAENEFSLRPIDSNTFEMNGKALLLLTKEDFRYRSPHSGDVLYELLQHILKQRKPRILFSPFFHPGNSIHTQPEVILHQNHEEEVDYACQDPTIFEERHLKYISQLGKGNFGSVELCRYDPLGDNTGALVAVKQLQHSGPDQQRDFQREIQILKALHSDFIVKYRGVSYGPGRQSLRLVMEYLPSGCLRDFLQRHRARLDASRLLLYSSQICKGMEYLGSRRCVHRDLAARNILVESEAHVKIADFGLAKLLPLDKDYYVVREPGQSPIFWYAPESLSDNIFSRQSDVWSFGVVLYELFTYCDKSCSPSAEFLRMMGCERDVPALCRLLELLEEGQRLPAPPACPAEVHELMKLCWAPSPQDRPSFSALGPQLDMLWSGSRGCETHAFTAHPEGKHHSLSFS

On to `CCC[C@H](Nc1cncc(-c2ccc(NC(=O)NCC)c(C)c2)n1)c1cccnc1`, for which the “Tubulin inhibition of tubulin polymerisation” value (shortened to “Tubulin inhibition”) in experiment [1] is “+ (compounds which inhibited tubulin polymerisation by greater than 50% at 50 μM)”. Also, the inhibition at 20 µM (in experiment [2]; in experiment [3]; in the experiment with PC3 (Prostate Cancer); in the experiment with DU145 (Prostate Cancer); in experiment [4]) was > 50% in each case.
With `CCCC(Nc1cncc(-c2ccc(OCCCCN3CCN(C)CC3)c(OC)c2)n1)c1ccccc1` (stereo not drawn), the “Tubulin inhibition” value in experiment [1] is given as “+ (compounds which inhibited tubulin polymerisation by greater than 50% at 50 μM)”. The inhibition at 20 µM (in experiment [2]; in experiment [3]; in the experiment with PC3 (Prostate Cancer); in the experiment with DU145 (Prostate Cancer); in experiment [4]) was > 50% throughout.
With `CCNC(=O)Nc1ccc(-c2cncc(N[C@@H](COC)c3ccccc3)n2)cc1OC`, in experiment [1], the “Tubulin inhibition” value is “+ (compounds which inhibited tubulin polymerisation by greater than 50% at 50 μM)”. For the same compound, the inhibition at 20 µM (in experiment [2]; in experiment [3]; in the experiment with PC3 (Prostate Cancer); in the experiment with DU145 (Prostate Cancer); in experiment [4]) was > 50% each time.
Take `CCC[C@H](Nc1cc(-c2ccc(NC(=O)NCC)c(OC)c2)ncn1)c1cccnc1`: in experiment [1], the “Tubulin inhibition” value was “+ (compounds which inhibited tubulin polymerisation by greater than 50% at 50 μM)”. Further, the inhibition at 20 µM (in experiment [2]; in experiment [3]; in the experiment with PC3 (Prostate Cancer); with DU145 (Prostate Cancer); in experiment [4]) was > 50% throughout.
For `COc1cc(-c2cc(N[C@@H](C)c3ccccc3)ncn2)ccc1O`, the “Tubulin inhibition” value in experiment [1] is reported as “+ (compounds which inhibited tubulin polymerisation by greater than 50% at 50 μM)”. Also, the inhibition at 20 µM (in experiment [2]; in experiment [3]; in the experiment with PC3 (Prostate Cancer); with DU145 (Prostate Cancer); in experiment [4]) was > 50% throughout.
`CCCC(Nc1cncc(-c2ccc(OCCCn3ccnc3)c(OC)c2)n1)c1ccccc1` (stereo not drawn): the “Tubulin inhibition” value in experiment [1] was “+ (compounds which inhibited tubulin polymerisation by greater than 50% at 50 μM)”. Also, the inhibition at 20 µM (in experiment [2]; in experiment [3]; with PC3 (Prostate Cancer); in the experiment on DU145 (Prostate Cancer); in experiment [4]) was > 50% throughout.
Consider `CCC[C@H](Nc1ccnc(-c2ccc(NC(=O)NCC)c(OC)c2)n1)c1cccnc1`, for which the “Tubulin inhibition” value in experiment [1] is recorded as “+ (compounds which inhibited tubulin polymerisation by greater than 50% at 50 μM)”. The inhibition at 20 µM (in experiment [2]; in experiment [3]; in the experiment on PC3 (Prostate Cancer); in the experiment on DU145 (Prostate Cancer); in experiment [4]) was > 50% in each case.
Regarding `COc1cc(-c2cncc(N[C@@H](C)c3ccccc3)c2)ccc1O`, the “Tubulin inhibition” value in experiment [1] is reported as “+ (compounds which inhibited tubulin polymerisation by greater than 50% at 50 μM)”. The inhibition at 20 µM (in experiment [2]; in experiment [3]; in the experiment on PC3 (Prostate Cancer); in the experiment with DU145 (Prostate Cancer); in experiment [4]) was > 50% each time.
As for `CCCC(Nc1cncc(-c2ccc(OCCCN3CCN(C)CC3)c(OC)c2)n1)c1ccccc1` (stereo not drawn), in experiment [1], the “Tubulin inhibition” value is recorded as “+ (compounds which inhibited tubulin polymerisation by greater than 50% at 50 μM)”. In addition, the inhibition at 20 µM (in experiment [2]; in experiment [3]; in the experiment with PC3 (Prostate Cancer); in the experiment on DU145 (Prostate Cancer); in experiment [4]) was > 50% throughout.
Regarding `CCCC(Nc1cncc(-c2ccc(CN3CCCC3)cc2)n1)c1ccccc1` (stereo not drawn), in experiment [1], the “Tubulin inhibition” value is “+ (compounds which inhibited tubulin polymerisation by greater than 50% at 50 μM)”. Moreover, the inhibition at 20 µM (in experiment [2]; in experiment [3]; in the experiment with PC3 (Prostate Cancer); with DU145 (Prostate Cancer); in experiment [4]) was > 50% in each case.
With `CCC[C@H](Nc1cncc(-c2ccc(NC(=O)NCC)c(OC)c2)n1)c1cccnc1`, the “Tubulin inhibition” value in experiment [1] is given as “+ (compounds which inhibited tubulin polymerisation by greater than 50% at 50 μM)”. Further, the inhibition at 20 µM (in experiment [2]; in experiment [3]; in the experiment with PC3 (Prostate Cancer); with DU145 (Prostate Cancer); in experiment [4]) was > 50% throughout.
For the compound `CCCC(Nc1cncc(-c2ccc(CNC(=O)C3CCCNC3)cc2)n1)c1ccccc1` (stereo not drawn), the “Tubulin inhibition” value in experiment [1] is “+ (compounds which inhibited tubulin polymerisation by greater than 50% at 50 μM)”. In addition, the inhibition at 20 µM (in experiment [2]; in experiment [3]; with PC3 (Prostate Cancer); with DU145 (Prostate Cancer); in experiment [4]) was > 50% each time.
Take `CCCC(Nc1cncc(-c2ccc(OCCN(CC)CC)c(OC)c2)n1)c1ccccc1` (stereo not drawn): the “Tubulin inhibition” value in experiment [1] is given as “+ (compounds which inhibited tubulin polymerisation by greater than 50% at 50 μM)”. The inhibition at 20 µM (in experiment [2]; in experiment [3]; in the experiment with PC3 (Prostate Cancer); with DU145 (Prostate Cancer); in experiment [4]) was > 50% throughout.
In the case of `CCCC(Nc1cncc(-c2ccc(OCCCO)c(OC)c2)n1)c1ccccc1` (stereo not drawn), the “Tubulin inhibition” value in experiment [1] was “+ (compounds which inhibited tubulin polymerisation by greater than 50% at 50 μM)”. For the same compound, the inhibition at 20 µM (in experiment [2]; in experiment [3]; in the experiment on PC3 (Prostate Cancer); with DU145 (Prostate Cancer); in experiment [4]) was > 50% each time.
With `CCCC(Nc1cncc(-c2ccc(NC(=O)NCC)c(OC)c2)n1)c1cccc(F)c1` (stereo not drawn), in experiment [1], the “Tubulin inhibition” value is on record as “+ (compounds which inhibited tubulin polymerisation by greater than 50% at 50 μM)”. The inhibition at 20 µM (in experiment [2]; in experiment [3]; in the experiment with PC3 (Prostate Cancer); in the experiment with DU145 (Prostate Cancer); in experiment [4]) was > 50% each time.
Consider `CCCC(Nc1cncc(-c2ccc(NC(=O)NCC)c(OC)c2)n1)c1cccnc1` (stereo not drawn), for which the “Tubulin inhibition” value in experiment [1] was “+ (compounds which inhibited tubulin polymerisation by greater than 50% at 50 μM)”. Moreover, the inhibition at 20 µM (in experiment [2]; in experiment [3]; in the experiment with PC3 (Prostate Cancer); in the experiment on DU145 (Prostate Cancer); in experiment [4]) was > 50% each time.
For the compound `CCCC(Nc1cncc(-c2ccc(NC(=O)NCCN(C)C)c(OC)c2)n1)c1cccnc1` (stereo not drawn), the “Tubulin inhibition” value in experiment [1] was “+ (compounds which inhibited tubulin polymerisation by greater than 50% at 50 μM)”. In addition, the inhibition at 20 µM (in experiment [2]; in experiment [3]; in the experiment on PC3 (Prostate Cancer); in the experiment on DU145 (Prostate Cancer); in experiment [4]) was > 50% each time.
For `CCCC(Nc1cncc(-c2ccc(NC(=O)NCC)c(C)c2)n1)c1cnccc1C` (stereo not drawn), in experiment [1], the “Tubulin inhibition” value was “+ (compounds which inhibited tubulin polymerisation by greater than 50% at 50 μM)”. Besides, the inhibition at 20 µM (in experiment [2]; in experiment [3]; with PC3 (Prostate Cancer); with DU145 (Prostate Cancer); in experiment [4]) was > 50% throughout.
Consider `CCCC(Nc1cncc(-c2ccc(CN)c(OC)c2)n1)c1cccnc1` (stereo not drawn), for which the “Tubulin inhibition” value in experiment [1] is listed as “+ (compounds which inhibited tubulin polymerisation by greater than 50% at 50 μM)”. In addition, the inhibition at 20 µM (in experiment [2]; in experiment [3]; in the experiment with PC3 (Prostate Cancer); in the experiment with DU145 (Prostate Cancer); in experiment [4]) was > 50% each time.
In the case of `CCCC(Nc1cncc(-c2ccc(OCCCN(CC)CC)c(OC)c2)n1)c1ccccc1` (stereo not drawn), the “Tubulin inhibition” value in experiment [1] was “+ (compounds which inhibited tubulin polymerisation by greater than 50% at 50 μM)”. Also, the inhibition at 20 µM (in experiment [2]; in experiment [3]; in the experiment on PC3 (Prostate Cancer); in the experiment on DU145 (Prostate Cancer); in experiment [4]) was > 50% each time.
